Data published in patent US20060286140A1, “Implants with attached silylated therapeutic agents” (priority 2003, published 2006).

Assays:
S. aureus (ATCC 25923) = experiment: Disc diffusion assay; type: cell-based; settings: 1 μg/mL solution, 20 μL on six mm filter disk, overnight
Protocol: Disc Diffusion Assay. Six mm sterile filter disks can be directly placed onto a full-grown lawn of S. aureus (ATCC 25923) culture, and known volumes (20 μL) and dilutions of the eluted antibiotic can be pipetted onto the disc. After incubation overnight, the area of the resultant adjacent clear zone that is devoid of bacterial growth can be measured and compared with the area cleared by a standard series of known doses of rifampin. A 1 μg/mL solution of rifampin should give a clear zone of 4-5 cm. The lower limit of sensitivity of this assay is expected to be in the 10 ng/mL range.

E. faecium = settings: in vitro; cited from earlier work
E. faecalis = settings: in vitro; cited from earlier work
S. aureus = settings: in vitro, most strains including S. aureus; cited from earlier work

CO[C@H]1/C=C/O[C@@]2(C)Oc3c(C)c(O)c4c(O)c(c(/C=N/N5CCN(C)CC5)c(O)c4c3C2=O)NC(=O)/C(C)=C\C=C\[C@H](C)[C@H](O)[C@@H](C)[C@@H](O)[C@@H](C)[C@H](OC(C)=O)[C@@H]1C (relative stereo) [rifampin, (2S*,12Z,14E,16R*,17R*,18S*,19S*,20S*,21R*,22S*,23R*,24E)-5,6,9,17,19,21-hexahydroxy-23-methoxy-2,4,12,16,18,20,22-heptamethyl-8-[N-(4-methyl-1-piperazinyl)formimidoyl]-2,7-(epoxypentadeca[1,11,13]trienimino)naphtha[2,1-b]furan-1,11-deone 21-acetate]
clear zone (S. aureus (ATCC 25923)): 4-5 cm

CN(C)c1cc(NC(=O)CNC(C)(C)C)c(O)c2c1C[C@H]1C[C@H]3[C@H](N(C)C)C(O)=C(C(N)=O)C(=O)[C@@]3(O)C(O)=C1C2=O [tigecyclin]
activity relative to linezolid (E. faecium): ~8 fold | activity relative to quinupristin-dalfopristin (E. faecium): 32 fold | activity relative to linezolid (E. faecalis): ~8 fold | activity relative to quinupristin-dalfopristin (E. faecalis): 32 fold | MIC90 (S. aureus): less than 0.25 mg/mL
